Patent US7626082B2, “Flowering induction” (Agriculture Victoria Services Pty Ltd., priority 2003, dated 2009)

Columns and labels:
Assay type in all cases: in vivo
FT gene = FT gene induction levels in sprayed transgenic arabidopsis plants (real-time RT-PCR); conditions: for fold gene induction: short day conditions
Description: Total RNA was converted to cDNA using standard protocols using 1-5 ug of RNA as measured by OD260.
Quantitative RT-PCR was performed in the BioRad iCycler instrument using standard protocols and SyberGreen as reporting dye
Actin gene levels were assayed using oligonucleotides GTF037 (Seq ID. No. 28) 5′[…]3′ and GTF038 (Seq ID No. 29) 5′[…]3′, and served as standards to normalize measurements of other genes.
To create a copy number calibration curve for individual genes, standards were made up from corresponding PCR products, measuring their concentration using gel serial dilution methods and spectrophotometry. Standard copy numbers were varied from 1 to 10^8 with 10× increments.
Amplifications were performed in triplicates, error rates were estimated by adding the average variance between triplicate samples, and average error of the standard curve fit of the standards of both the gene of interest and of the actin standard.
We have also measured the FT gene induction levels in the sprayed transgenic arabidopsis plants compared with the non-sprayed or non-transgenic controls in plants grown in short day conditions, the results are summarized in the table below:
The methodology we used to measure the gene induction levels was essentially the same as described elsewhere in the patent, except that we used the arabidopsis gene-specific primers NIK13 5′[…]3′ (SEQ ID NO: 34) and NIK14 5′[…]3′ (SEQ ID NO: 35).

[1] = tested on: Arabidopsis plants containing the pHTOP::FT inducible construct; assay: Time to flowering of arabidopsis plants sprayed with DEX inducer; parameters: time to flowering: unit not given here
[2] = tested on: transgenic arabidopsis plants carrying both the pHTOP-FT construct and the LhG4-GR construct; assay: Transgenic arabidopsis grown in the presence of DEX: flowering and GUS staining
Description: (A) A plant grown on a 30 μM MS-DEX plate; (B) No DEX control; (C) and (D) GUS staining of leaves from induced plants; (E) GUS staining of a leaf from a non-induced LhGr/pHtop-FT plant; GUS staining of a leaf from a Col wild type plant.
The arabidopsis FT cDNA was inserted into the pHTOP vector system to facilitate inducible expression of the gene using heterologous transcription factor system LhG4^19,27.
This inducible system allows for simultaneous expression of two genes from the same reporter construct. In the experiment described here the GUS gene was used as a second gene in addition to FT.

`C[C@@H]1C[C@H]2[C@@H]3CCC4=CC(=O)C=C[C@]4(C)[C@@]3(F)[C@@H](O)C[C@]2(C)[C@@]1(O)C(=O)CO` [DEX, dexmethasone] was tested, and the “induction in the cDNA level as assayed in real-time RT-PCR” value (FT gene; 1 mM spray of inducer) was “lesser induction”, the fold gene induction (FT gene; LhG4-mGR driver plants, sprayed twice 30 μM) was 1x and the fold gene induction (FT gene; pHTOP::FT plants, sprayed twice 30 nM) was 1x. For the same compound, the fold gene induction (FT gene; pHTOP::FT plants, sprayed twice 1 μM) was 20x, the fold gene induction (FT gene; pHTOP::FT plants, sprayed twice 30 μM) was 120x and the “induction in the cDNA level as assayed in real-time RT-PCR” value (FT gene; plants 3 days after treatment with high level of the DEX inducer) was > 100 fold. The fold gene induction (FT gene; wild type plants, sprayed twice 30 μM) was 1x, the time to flowering ([1]; LhG4-mGR driver, line S7, sprayed twice 30 μM, unit not in table (b146 speaks of days)) was 20 and the emergence of inflorescences ([1]; pHTOP::FT plants sprayed with 30 mM DEX, 6 days after spraying (FIG. 12)) was “inflorescences have emerged”. For the same compound, the time to flowering ([1]; pHTOP::FT, line COF3-12, sprayed twice 30 nM) was 20, the time to flowering ([1]; pHTOP::FT, line COF3-12, sprayed twice 1 μM) was 20 and the time to flowering ([1]; pHTOP::FT, line COF3-12, sprayed twice 30 μM) was 16.5. It also gave a time to flowering ([1]; pHTOP::FT, line COF7-30, sprayed twice 30 nM) of 20, a time to flowering ([1]; pHTOP::FT, line COF7-30, sprayed twice 1 μM) of 19 and a time to flowering ([1]; pHTOP::FT, line COF7-30, sprayed twice 30 μM) of 14.86. For the same compound, the “reduction of time to flowering” value ([1]; spraying with 30 mM inducer, compared to non-transgenic or non-sprayed plants) was “up to 6 days”, the time to flowering ([1]; wild type, line Col, sprayed twice 30 μM) was 20 and the flowering ([2]; pHTOP-FT + LhG4-GR plants grown in the presence of DEX (30 μM MS-DEX plate, FIG. 5)) was “accelerated flowering”. For the same compound, the “GUS staining (reporter gene activity)” value ([2]; pHTOP-FT + LhG4-GR plants grown in the presence of DEX (FIG. 5)) was “GUS staining”.
